According to patent US6852482B1, “Methods and compositions for inhibiting β-secretase” (Elan Pharmaceuticals, Inc., priority 1995, dated 2005):
Read-outs that look alike come from different tables or passages of the source.

B1: lentil (LCA): immobilized lectin (protein)
chain 1: TETTSFSITKFSPDQKNLIFQGDGYTTKGKLTLTKAVKSTVGRALYSTPIHIWDRDTGNVANFVTSFTFVIDAPSSYNVADEFTFFIAPVDTKPQTGGGYLGVFNSKEYDKTSQTVAVEFDTFYNAAWDPSNKERHIGIDVNSIKSVNTKSWNLQNGERANVVIAFNAATNVLTVTLTYP
chain 2: VTSYTLNEVVPLKDVVPEWVRIGFSATTGAEFAAHEVHSWSFHSELGGTSSS
B2: peanut (PNA): immobilized lectin (protein, UniProt P02872 24-273, looked up)
Galactose-binding lectin: AETVSFNFNSFSEGNPAINFQGDVTVLSNGNIQLTNLNKVNSVGRVLYAMPVRIWSSATGNVASFLTSFSFEMKDIKDYDPADGIIFFIAPEDTQIPAGSIGGGTLGVSDTKGAGHFVGVEFDTYSNSEYNDPPTDHVGIDVNSVDSVKTVPWNSVSGAVVKVTVIYDSSTKTLSVAVTNDNGDITTIAQVVDLKAKLPERVKFGFSASGSLGGRQIHLIRSWSFTSTLITTTRRSIDNNEKKIMNMASA
modifications: immobilized
notes: immobilized lectin

Legend:
[1] = molecular target: T1, β-secretase cleavage of APP in membranes from 293 cells transfected with the Swedish variant of APP (Homo sapiens, UniProt P56817); assay: cell membrane (in situ) β-secretase cleavage of APP, 293SW cell membranes, 192SW immunoblot; type: biochemical
T1 construct: membranes from 293 cells transfected with the Swedish variant of APP (293SWE cells); endogenous in cells; host or cells: 293SW cells (human 293 cells stably transfected with Swedish APP); saponin-extracted P2 membrane pellet
Description: Generation of β-secretase cleaved APP fragments from the endogenous full length APP protein was observed using the 192SW antibody (described above) in membranes from 293 cells transfected with the Swedish variant of APP (293SWE cells). APP fragments may be measured by immunoprecipitation or by immunoblotting. The latter technique is preferred for reasons of convenience.
A semiquantitative assay for the detecting in situ β-secretase cleavage of APP in membranes was developed used to directly identify β-secretase inhibitors. The membrane assay is useful as a primary screen or as a secondary assay to confirm inhibiting activity of potential inhibitors identified in the assays described above.
Cell membrane assays were run as follows. […]
For β-secretase inhibition assays, 10 μl of the test compound of interest at 5 times its desired final concentration, in 500 mM sodium acetate, pH 5.5, and 20% DMSO, was added to 40 μl of the extracted P2 suspension. […] Membranes were blocked in NCS-TBS (10% newborn calf serum, 150 mM sodium chloride, 50 mM Tris, pH 7.5), and analyzed using 192SW, 0.5 μg/ml in NCS-TBS, as primary antibody, horseradish peroxidase-linked anti-rabbit IgG (Amersham) diluted 1:3000 in NCS-TBS as secondary antibody, and ECL reagent (Amersham) as chemilumenescent developer. The 192SW-reactive bands identified by autoradiography were quantitated by densitometry.

β-secretase [2] = molecular target: T2, β-secretase (Homo sapiens, UniProt P56817); assay: β-secretase inhibitor assay: purified β-secretase, MBP-C125 SW substrate, ELISA
T2 sequence (P56817 46-501): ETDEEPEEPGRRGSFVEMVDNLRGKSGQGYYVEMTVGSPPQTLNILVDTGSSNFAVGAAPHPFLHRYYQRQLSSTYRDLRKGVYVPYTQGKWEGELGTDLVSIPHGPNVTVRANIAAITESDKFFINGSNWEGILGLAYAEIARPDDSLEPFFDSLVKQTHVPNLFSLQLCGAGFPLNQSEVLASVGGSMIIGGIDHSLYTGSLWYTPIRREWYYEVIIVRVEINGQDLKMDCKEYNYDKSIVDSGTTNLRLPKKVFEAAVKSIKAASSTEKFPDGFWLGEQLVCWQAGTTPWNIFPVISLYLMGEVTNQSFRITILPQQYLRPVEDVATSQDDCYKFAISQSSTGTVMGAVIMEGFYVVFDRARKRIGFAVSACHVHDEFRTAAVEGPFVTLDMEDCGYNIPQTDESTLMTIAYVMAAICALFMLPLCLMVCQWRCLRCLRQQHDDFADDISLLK

β-secretase [3] = molecular target: T2, β-secretase; assay: binding of substantially purified β-secretase activity to immobilized lectins; parameters: endogenous in cells; host or cells: human 293 cells or human brain; solubilized membrane extract purified by WGA, SP, Q, Con A and Superdex 200 chromatography; settings: for β-Secretase Binding: immobilized lectins
Experimental: Glycosylation of β-secretase has been investigated using various immobilized lectins, and ability of substantially purified β-secretase activity to bind to them was determined. […] A “−” sign signifies less than 20% binding, “+” between 24-40% binding, “++” between 50-75% binding, and “+++”>75% binding.

[4] = concentration of inhibitor giving 50% inhibition of control activity

Row | Molecule | IC50 (β-secretase [2]; [4]) [mM] | β-Secretase Binding (β-secretase [3]) | also measured
1 | Nc1c(/N=N/c2ccc(-c3ccc(/N=N/c4cc(S(=O)(=O)O)c5ccccc5c4N)cc3)cc2)cc(S(=O)(=O)O)c2ccccc12 [Congo Red] | – | – | activity in the in situ assay [1]: much more potent than an inactive control compound; activity in the ELISA assay (β-secretase [2]; ELISA assay): much more potent than an inactive control compound
2 | [Cu+2] [Cu] | 2 | – | –
3 | [Zn+2] [Zn] | 3 | – | –
4 | CCCCC(NC(=O)C=[N+]=[N-])C(=O)OC (stereo not shown) [diazoacetylnorleucyl-methyl ester] | – | – | IC50 (β-secretase [2]): > 5 mM
5 | c1cnc2c(c1)ccc1cccnc12 [o-phenanthroline] | 7 | – | inhibition of β-secretase activity (β-secretase [2]; summary of Table 3): inhibits poorly
6 | m-phenanthroline | 7 | – | –
7 | wheat germ (WGA): immobilized lectin | – | + + + | binding of β-secretase activity (β-secretase [3]): quantitatively
8 | wheat germ - succinylated (SWGA): immobilized lectin | – | + (between 24-40% binding) | –
9 | B1 | – | + (between 24-40% binding) | –
10 | B2 | – | + (between 24-40% binding) | –
